One may read the viability as the share of living cells, or the viability signal relative to a control.

This test concerns ViroSTEM (mesenchymal stem cells into which measles virus has been introduced). Nature of the test: Viability of ViroSTEM cold-stored in 30% autologous serum-containing physiological saline treated with aspirin. The test is classed as cell-based, human. Here is the method: While ViroSTEM, which is mesenchymal stem cells into which measles virus has been introduced, was cold-stored in physiological saline containing aspirin and 30% autologous serum for 5 days, it was treated with aspirin at a concentration of 10 μg/ml to 100 μg/ml.
The period of time during which ViroSTEM cold-stored in physiological saline containing 50 μg/ml aspirin and 30% autologous serum was maintained as described above increased to 80 hours, indicating the stability of the virus in ViroSTEM cold-stored for 80 hours. After cold storage of ViroSTEM for 80 hours, the stem cells were cultured and then observed under a fluorescence microscope.

SMILES strings stand for the structures.

Regarding `CC(=O)Oc1ccccc1C(=O)O` [aspirin], the viability at 50 µg/mL (Homo sapiens, Mesenchymal stem cells, 72 h, aspirin 50 μg/ml, cold storage 3 days in physiological saline containing 30% autologous serum, without aspirin about 28.6%, read-out: cell viability of measles virus-infected stem cell therapeutic agent) was at least 88%. Also, where the note is “tested 10 μg/ml to 100 μg/ml in vehicle containing autologous serum”, the “most effective concentration of aspirin” value came out at 50 µg/mL.

These data come from patent US20230016479A1, “METHOD FOR PREPARING MESENCHYMAL STEM CELLS HAVING IMPROVED VIABILITY THROUGH ANTI-CANCER VIRUS INTRODUCTION” (priority 2019, published 2023).
